According to PMC10461224, “Development of an Affinity-Based Probe to Profile Endogenous Human Adenosine A3 Receptor Expression” (Journal of Medicinal Chemistry, 2023):

Experiments:
[1] = target: T1, human A1AR (hA1AR) (Homo sapiens, UniProt P30542); test: Single-point radioligand displacement, [3H]DPCPX; assay type: binding; details: 1 μM probe; CHO cell membranes; co-incubated with radioligand 30 min at 25 °C; mean of two experiments
T1 construct: expressed in transfected cells; host or cells: CHO cells (CHOhA1AR), gift of Prof; S.J. Hill, University of Nottingham; membrane fractions
T1 sequence (P30542 1-326): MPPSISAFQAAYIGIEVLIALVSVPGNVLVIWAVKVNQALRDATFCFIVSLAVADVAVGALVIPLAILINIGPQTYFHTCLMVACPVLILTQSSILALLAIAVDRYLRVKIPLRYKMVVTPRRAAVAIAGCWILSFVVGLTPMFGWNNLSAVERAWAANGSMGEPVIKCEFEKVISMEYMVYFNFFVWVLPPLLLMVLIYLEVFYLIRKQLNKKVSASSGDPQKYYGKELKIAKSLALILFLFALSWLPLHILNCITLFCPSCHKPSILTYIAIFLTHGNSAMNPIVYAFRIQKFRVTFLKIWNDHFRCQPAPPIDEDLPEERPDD
Method: Membrane aliquots containing 15 μg (CHOhA3AR), 5 μg (CHOhA1AR), or 30 μg (HEK293hA2AAR and CHO-spap-A2BAR) of protein were resuspended in assay buffer (A3AR: 50 mM Tris–HCl, pH 8.0, 10 mM MgCl2, 1 mM EDTA, 0.01% CHAPS; A1AR and A2AAR: 50 mM Tris–HCl, pH 7.4; A2BAR: 50 mM Tris–HCl, pH 7.4, 0.1% CHAPS). […] Nonspecific binding was determined in the presence of 100 μM NECA (A3AR), 100 μM CPA (A1AR), 100 μM NECA (A2AAR), and 10 μM ZM241385 (A2BAR). Incubations were terminated by rapid vacuum filtration to separate the bound and free radioligand through prewetted 96-well GF/C filter plates using a PerkinElmer Filtermate harvester. Filters were subsequently washed 12 times with ice-cold wash buffer (A3AR: 50 mM Tris–HCl, pH 8.0, 10 mM MgCl2, 1 mM EDTA; A1AR and A2AAR: 50 mM Tris–HCl, pH 7.4; A2BAR: 50 mM Tris–HCl, pH 7.4, 0.1% BSA). The plates were dried at 55 °C, and MicroscintTM-20 cocktail (PerkinElmer) was added subsequently.
Single point displacement values shown are mean percentages of two individual experiments performed in duplicate. All pKi values shown are mean values ± SEM of three individual experiments performed in duplicate.

[2] = target: T2, hA1AR (Homo sapiens, UniProt P30542); test: Full curve displacement assays on the hA1AR; assay type: binding; details: from full curve displacement assays (Table S1)
T2 construct: expressed in transfected cells; host or cells: CHO cells (CHOhA1AR), gift of Prof; S.J. Hill, University of Nottingham; membrane fractions
T2 sequence (P30542 1-326): T1 sequence (P30542 1-326)
Method: The affinity of the synthesized AfBPs was determined in radioligand binding experiments. First, single concentration displacement assays were carried out on all four human adenosine receptors, using a final probe concentration of 1 μM (Table 1). […] This quick screen indicated a good selectivity toward the hA3AR over the other human ARs, a trend that was also observed in the case of the parent compound.[34] Next, the ‘apparent’ affinities (depicted as pKi values) toward the hA3AR were determined using full curve displacement assays. To study the presumable covalent mode of action, the apparent affinity was determined with (pre-4 h) and without (pre-0 h) 4 h of pre-incubation of AfBP with hA3AR, prior to addition of radioligand. […] This difference in affinity was reflected in a shift in apparent pKi. […] To further investigate selectivity toward the hA3AR over the hA1AR, full curve displacement assays were carried out on the hA1AR.
[…]. Single point displacement values shown are mean percentages of two individual experiments performed in duplicate. All pKi values shown are mean values ± SEM of three individual experiments performed in duplicate. Statistical analysis was performed using a one-way ANOVA test with multiple comparisons (****p < 0.0001).

[3] = target: T3, hA3AR (Homo sapiens, UniProt P0DMS8); test: Wash-out assay, [3H]PSB-11 binding after washing; details: 1 μM compound, pre-incubated 2 h at 25 °C, washed 4 times
T3 construct: expressed in transfected cells; host or cells: CHO cells (CHOhA3AR), gift of Prof; K.N. Klotz, University of Würzburg; used as membrane fractions or live cells
T3 sequence (P0DMS8 1-318): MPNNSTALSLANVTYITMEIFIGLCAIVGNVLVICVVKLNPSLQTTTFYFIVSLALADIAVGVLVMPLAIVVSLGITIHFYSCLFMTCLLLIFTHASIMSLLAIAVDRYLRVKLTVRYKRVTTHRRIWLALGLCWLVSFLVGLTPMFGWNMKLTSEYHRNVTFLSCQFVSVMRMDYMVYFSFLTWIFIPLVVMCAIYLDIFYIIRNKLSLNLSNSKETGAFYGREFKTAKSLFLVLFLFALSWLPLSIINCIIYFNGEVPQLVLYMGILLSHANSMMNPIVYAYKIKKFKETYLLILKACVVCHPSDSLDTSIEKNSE
Method: 200 μL assay buffer (50 mM Tris–HCl, pH 8.0, 10 mM MgCl2, 1 mM EDTA and 0.01% CHAPS), 100 μL assay buffer containing the competing ligand (final concentration: 1 μM), and 100 μL of CHOhA3AR membrane fractions (100 μg protein) were combined and pre-incubated for 2 h at 25 °C while shaking. The ‘4× washed’ samples were centrifuged (5 min, 13,000 rpm, 4 °C), and the supernatant was removed. The resulting pellet was dissolved in 1 mL of assay buffer and incubated for 10 min at 25 °C while shaking. The ‘4× washed’ samples were then again centrifuged (2 min, 13,000 rpm, 4 °C), the supernatant was removed, and the resulting pellet was dissolved in 1 mL of assay buffer. The latter washing steps were repeated two times (four times washing total), and the final pellet was dissolved in 300 μL assay buffer. The radioligand (10 nM [^3H]PSB-11) in 100 μL of assay buffer was added to all samples, and the samples were incubated at 25 °C for 1 h. Nonspecific binding was determined in the presence of 100 μM NECA. Incubations were terminated by addition of 1 mL of ice-cold washing buffer (50 mM Tris–HCl, pH 8.0, 10 mM MgCl2, 1 mM EDTA) and rapid vacuum filtration through prewetted 96-well GF/B filter plates using a Brandel harvester. Filters were subsequently washed 5 times with ice-cold wash buffer. The plates were dried under vacuum, and a MicroscintTM-20 cocktail (PerkinElmer) was added subsequently. After 3 h, the filter-bound radioactivity was determined using a 2450 MicroBeta Microplate Counter (PerkinElmer).

| Structure (SMILES) | % specific [3H]DPCPX displacement, hA1AR [1] | selectivity toward the hA3AR over the hA1AR [2] | binding to hA3AR after wash-out ([3H]PSB-11 binding recovery) [3] |
| --- | --- | --- | --- |
| C#CCN(CCCn1c(=O)n(CCC)c(=O)c2c1nc1cc(OC)ccn12)C(=O)c1ccc(S(=O)(=O)F)cc1 [compound 5, 4-((3-(8-Methoxy-2,4-dioxo-3-propyl-3,4-dihydropyrido[2,1-f]purin-1(2H)-yl)propyl)(prop-2-yn-1-yl)carbamoyl)benzenesulfonyl fluoride] | 2% | > 100 fold | persistent binding |
| C#CCOc1ccn2c(c1)nc1c2c(=O)n(CCC)c(=O)n1CCCNC(=O)c1ccc(S(=O)(=O)F)cc1 [compound 9, 4-((3-(2,4-Dioxo-8-(prop-2-yn-1-yloxy)-3-propyl-3,4-dihydropyrido[2,1-f]purin-1(2H)-yl)propyl)carbamoyl)benzenesulfonyl fluoride] | 21% | > 17 fold | persistent binding |
